Measurements from PMC5297809, “Design, Synthesis and Antifungal Activity Evaluation of New Thiazolin-4-ones as Potential Lanosterol 14α-Demethylase Inhibitors” (International Journal of Molecular Sciences, 2017).
In brackets after ≈: the same amount, converted by molar mass.

How the values were obtained:
[1] = test system: Candida albicans ATCC 10231; experiment: cup-plate agar diffusion method, inhibition zone diameters; format: cell-based; conditions: ATCC10231, C. albicans ATCC 10231, 1 mg/mL in DMSO, 20 µg/well, mean of three ± SD, read-out: inhibition zone diameters
[2] = test system: Candida albicans ATCC 10231; experiment: broth microdilution MIC/MFC; format: cell-based; conditions: for MFC: ATCC10231, C. albicans ATCC 10231, read-out: MFC; for MIC: ATCC10231, C. albicans ATCC 10231, read-out: MIC
[3] = test system: Candida albicans ATCC 18804; experiment: broth microdilution MIC/MFC; format: cell-based; conditions: for MFC: ATCC18804, C. albicans ATCC 18804, read-out: MFC; for MIC: ATCC18804, C. albicans ATCC 18804, read-out: MIC
Candida krusei ATCC 6258 = experiment: broth microdilution MIC/MFC; format: cell-based; conditions: Pichia kudriavzevii, ATCC6258, C. krusei ATCC 6258; for MFC: read-out: MFC; for MIC: read-out: MIC
[4] = test system: Candida parapsilosis ATCC 22019; experiment: broth microdilution MIC/MFC; format: cell-based; conditions: Lodderomyces parapsilosis, ATCC22019, C. parapsilosis ATCC 22019; for MFC: read-out: MFC; for MIC: read-out: MIC
[5] = lipophilicity by RP-TLC with PCA; format: physicochemical; set-up: key to P1 / P2: PCA scores of compounds computed from Rf data; conditions: for RM0: RP-TLC C18, water-i-propanol 45-65%, intercept, RM extrapolated to 0% organic modifier (lipophilicity); for b: RP-TLC regression slope (specific hydrophobic surface area); for P1: score of first principal component of Rf data, low P1 = highly lipophilic; for P2: score of second principal component of Rf data
Procedure: The lipophilic character of twenty thiazolin-4-one derivatives was assessed with the help of the principal component analysis (PCA) based on the reversed-phase thin-layer chromatography (RP-TLC) data.
The chromatographic behavior of the test compounds was studied on C18 silicagel bonded 60 RP-180F254S TLC (20 × 20 cm) plates, purchased from Merck (Darmstadt, Germany). The test compounds’ solutions (1 mg/mL) were prepared by dissolving the samples in DMSO (Merck, Darmstadt, Germany). The plates were manually spotted with 3 µL aliquots of each solution at 10 mm from the base and 5 mm from the edge of the plate, leaving a 10 mm distance between successive spots, and developed by the ascending technique, without preconditioning. Chromatography was performed in a normal developing chamber at room temperature (~24 °C), the developing distance being of 9 cm. The solvent system used as mobile phase consisted of a water-i-propanol mixture, with a varying content of organic modifier (i-propanol—concentration ranged between 45% and 65% (v/v), with 5% vol. increments). Before the development, the chamber was saturated with the mobile phase for 15 min. After being developed, the dried plates were visually inspected under the UV light (λ = 254 nm), each spot was clearly marked and its distance was manually measured in order to calculate the Rf values. The spots of the compounds 3f, 10 and 11 were not visible in UV light, thus their Rf values could not be calculated, therefore they were excluded from this assay.
Based on the Rf values, one of the most common lipophilic estimator, meaning the isocratic retention factor RM was calculated using the Bate-Smith and Westall equations [40].
RP-TLC provides retention data in the form of Rf and the corresponding RM values (Equation (2)) that can be used to derive chromatographic descriptors for estimating lipophilicity: RM0, b and PCA. The most popular lipophilicity descriptor estimated by this method is RM and it is derived from the retention factor (Rf) according to the following formula: RM = log[(1/Rf) − 1] (2) where Rf is calculated on the basis of migration distance of a compound and the solvent front.
As RM value (related to the molecular lipophilicity) depends linearly on the concentration of the organic modifier in the mobile phase, the value is extrapolated to pure water as mobile phase. In order to increase the accuracy of the lipophilicity determination, the RM values extrapolated to zero organic modifier concentration (RM0) have been calculated from the linear correlation between the RM values and the concentration of the organic component of the mobile phase: RM = RM0 + bc (3) where RM0 is the lipophilicity estimation parameter, RM is the retention of the solute, b is the slope, and c is the concentration of the mobile phase organic modifier (i-propanol).
The intercept (RM0) in Equation (3) represents the extrapolated RM values at 0% organic modifier.
PCA was performed on the obtained retention parameters with the help of XL-STAT extension. […] PCA gave the coordinates (scores) of the studied compounds and also the loadings of the variables (solvents) on the principal components.

Row | SMILES | zone of inhibition at 1000 µg/mL [1] [mm] | MFC [2] [µg/mL] | MIC [2] [µg/mL] | MFC [3] [µg/mL] | MIC [3] [µg/mL] | MFC (Candida krusei ATCC 6258) [µg/mL] | MIC (Candida krusei ATCC 6258) [µg/mL] | MFC [4] [µg/mL] | MIC [4] [µg/mL] | RM0 [5] | b [5] | P1 [5] | P2 [5] | melting point [°C]
1 | C=CCNC1=NC(=O)C(=Cc2ccc(O)c(OC)c2)S1 [Compound 3g, 2-(Allylamino)-5-(4-hydroxy-3-methoxybenzylidene)thiazol-4(5H)-one] | 22 ± 0.2 | 1.95 (≈ 6.72 µM) | 0.48 (≈ 1.65 µM) | 0.97 (≈ 3.34 µM) | 0.48 (≈ 1.65 µM) | 1.95 (≈ 6.72 µM) | 0.48 (≈ 1.65 µM) | 0.48 (≈ 1.65 µM) | 0.24 (≈ 0.827 µM) | 0.6734 | −1.9546 | 3.365 | 0.453 | 240
2 | C=CCNC1=NC(=O)C(=Cc2ccc(O)cc2)S1 [Compound 3h, 2-(Allylamino)-5-(4-hydroxybenzylidene)thiazol-4(5H)-one] | 20 ± 0.5 | 0.48 (≈ 1.84 µM) | 0.24 (≈ 0.922 µM) | 0.97 (≈ 3.73 µM) | 0.48 (≈ 1.84 µM) | 0.97 (≈ 3.73 µM) | 0.24 (≈ 0.922 µM) | 0.97 (≈ 3.73 µM) | 0.12 (≈ 0.461 µM) | 1.1465 | −2.6897 | 2.905 | 0.056 | 338
3 | O=C1N=C(Nc2ccccc2)SC1=Cc1cccc(Cl)c1 [Compound 6a, 5-(3-Chlorobenzylidene)-2-(phenylamino)thiazol-4(5H)-one] | 20 ± 0.5 | 31.2 (≈ 99.3 µM) | 15.6 (≈ 49.6 µM) | 15.6 (≈ 49.6 µM) | 7.81 (≈ 24.8 µM) | 3.9 (≈ 12.4 µM) | 7.81 (≈ 24.8 µM) | 3.9 (≈ 12.4 µM) | 3.9 (≈ 12.4 µM) | 2.1738 | −3.9258 | 0.485 | −0.534 | 278 to 280
4 | O=C1N=C(Nc2ccccc2)SC1=Cc1ccc(Cl)cc1Cl [Compound 6b, 5-(2,4-Dichlorobenzylidene)-2-(phenylamino)thiazol-4(5H)-one] | 20 ± 1 | 31.2 (≈ 89.5 µM) | 15.6 (≈ 44.7 µM) | 31.2 (≈ 89.5 µM) | 15.6 (≈ 44.7 µM) | 7.81 (≈ 22.4 µM) | 7.81 (≈ 22.4 µM) | 3.9 (≈ 11.2 µM) | 3.9 (≈ 11.2 µM) | 2.4679 | −4.0118 | −1.253 | −0.186 | 204 to 206
5 | O=C1N=C(Nc2ccccc2)SC1=Cc1ccc([N+](=O)[O-])cc1 [Compound 6c, 5-(4-Nitrobenzylidene)-2-(phenylamino)thiazol-4(5H)-one] | 20 ± 1 | 1.95 (≈ 5.99 µM) | 0.97 (≈ 2.98 µM) | 3.9 (≈ 12 µM) | 1.95 (≈ 5.99 µM) | 1.95 (≈ 5.99 µM) | 0.97 (≈ 2.98 µM) | 1.95 (≈ 5.99 µM) | 0.97 (≈ 2.98 µM) | 1.7388 | −3.3696 | 1.394 | −0.304 | 347
6 | O=C1N=C(Nc2ccccc2)SC1=Cc1csc(-c2ccccc2)n1 [Compound 6d, 2-(Phenylamino)-5-((2-phenylthiazol-4-yl)methylene)thiazol-4(5H)-one] | 20 ± 1 | 7.81 (≈ 21.5 µM) | 3.9 (≈ 10.7 µM) | 15.6 (≈ 43 µM) | 7.81 (≈ 21.5 µM) | 15.6 (≈ 43 µM) | 7.81 (≈ 21.5 µM) | 7.81 (≈ 21.5 µM) | 3.9 (≈ 10.7 µM) | 2.1996 | −3.8092 | −0.168 | −0.359 | 287 to 289
7 | O=C1N=C(Nc2ccccc2)SC1=Cc1coc2ccc(Cl)cc2c1=O [Compound 6e, 5-((6-Chloro-4-oxo-4H-chromen-3-yl)methylene)-2-(phenylamino)thiazol-4(5H)-one] | 16 ± 1 | 3.9 (≈ 10.2 µM) | 1.95 (≈ 5.09 µM) | 3.9 (≈ 10.2 µM) | 0.97 (≈ 2.53 µM) | 3.9 (≈ 10.2 µM) | 0.97 (≈ 2.53 µM) | 0.97 (≈ 2.53 µM) | 0.48 (≈ 1.25 µM) | 2.22 | −3.9066 | 0.079 | −0.443 | 356
8 | O=C1N=C(Nc2cccc3ccccc23)SC1=Cc1cccc(Cl)c1 [Compound 9a, 5-(3-Chlorobenzylidene)-2-(naphthalen-1-ylamino)thiazol-4(5H)-one] | 18 ± 1 | 7.81 (≈ 21.4 µM) | 3.9 (≈ 10.7 µM) | 7.81 (≈ 21.4 µM) | 1.95 (≈ 5.34 µM) | 0.97 (≈ 2.66 µM) | 0.48 (≈ 1.32 µM) | 0.97 (≈ 2.66 µM) | 0.48 (≈ 1.32 µM) | 2.5309 | −4.1292 | −1.227 | −0.239 | 140
9 | O=C1N=C(Nc2cccc3ccccc23)SC1=Cc1ccc([N+](=O)[O-])cc1 [Compound 9c, 2-(Naphthalen-1-ylamino)-5-(4-nitrobenzylidene)thiazol-4(5H)-one] | 20 ± 0.5 | 3.9 (≈ 10.4 µM) | 1.95 (≈ 5.19 µM) | 3.9 (≈ 10.4 µM) | 1.95 (≈ 5.19 µM) | 1.95 (≈ 5.19 µM) | 0.97 (≈ 2.58 µM) | 0.06 (≈ 0.16 µM) | 0.03 (≈ 0.0799 µM) | 2.7789 | −4.1555 | −2.722 | 0.228 | 152
